# Experimental data from ChEMBL document CHEMBL6092156, “Design and development of a series of 4-(piperazin-1-yl)pyrimidines as irreversible menin inhibitors” (Eur J Med Chem, 2024).
# Active and inactive are the calls of the source. The calls are words filed in the database; no cut-off is given here.
# Legend:
# REH [1] = experiment: Antiproliferative activity against human menin-insensitive REH cells assessed as inhibition of cell growth incubated for 7 days by MTS assay; format: functional, cell-based; settings: 168 h
# [2] = Tmax in female ICR mouse at 5 mg/kg, ip by LC-MS/MS analysis; format: ADME, organism-based; settings: in vivo
# MV4-11 [3] = experiment: Inhibition of menin protein expression in human MV-4-11 cells measured after 48 hrs incubation by Western blot analysis; format: functional, cell-based; settings: dose 1-37 µM
# MV4-11 [4] = experiment: Suppression of MEN1 gene transcription in human MV4-11 cells incubated for 48 hrs by relative gene expression assay; format: functional, cell-based
# MV4-11 [5] = experiment: Antitumor activity against human MV4-11 cells xenografted in nu/nu mouse model assessed as tumor growth rate at 20 mg/kg, ip bid for 15 days measured twice a week during compound dosing by caliper method relative to control; format: functional; settings: time 15 day
# [6] = AUClast in female ICR mouse at 5 mg/kg, ip by LC-MS/MS analysis; format: ADME, organism-based; settings: in vivo
# MV4-11 [7] = experiment: Downregulation of HOXA9 expression level in human MV4-11 cells at 10 uM incubated for 48 hrs by qRT-PCR analysis; format: functional, cell-based
# [8] = Cmax in female ICR mouse at 5 mg/kg, ip by LC-MS/MS analysis; format: ADME, organism-based; settings: in vivo
# [9] = Observed MRTinfinity in female ICR mouse at 5 mg/kg, ip by LC-MS/MS analysis; format: ADME, organism-based; settings: in vivo
# HL-60 = experiment: Antiproliferative activity against human HL-60 cells assessed as cell growth inhibition incubated for 7 days by MTS assay; format: functional, cell-based; settings: HL-60, 168 h
# MV4-11 [10] = experiment: Antiproliferative activity against human MV4-11 cells assessed as reduction in cell viability at 100 nM preincubated for 7 days and followed by compound washout and measured on day 14 after compound readdition; format: functional, cell-based; settings: time 21.0 day
# REH [11] = experiment: Downregulation of HOXA9 expression level in human REH cells at 10 uM incubated for 48 hrs by qRT-PCR analysis; format: functional, cell-based
# [12] = Suppression of MEN1 gene transcription in human MV4-11 cells assessed as protein synthesis by measuring fold change at 10 uM incubated for 36 hrs in presence of 50 ug/ml cycloheximide relative to control; format: functional
# REH [13] = experiment: Antiproliferative activity against human REH cells assessed as cell growth inhibition incubated for 7 days by MTS assay; format: functional, cell-based; settings: 168 h
# MOLM-13 = experiment: Antiproliferative activity against human MOLM-13 cells harboring MLL-AF9 assessed as cell growth inhibition incubated for 7 days by MTS assay; format: functional, cell-based; settings: MOLM-13, 168 h
# MV4-11 [14] = experiment: Downregulation of MEIS1 expression level in human MV4-11 cells at 10 uM incubated for 48 hrs by qRT-PCR analysis; format: functional, cell-based
# MV4-11 [15] = experiment: Antiproliferative activity against human MV4-11 cells assessed as reduction in cell viability at 50 nM incubated for 7 days and measured after compound washout relative to control; format: functional; settings: time 7 day
# MV4-11 [16] = experiment: Antitumor activity against human MV4-11 cells xenografted in nu/nu mouse model assessed as tumor growth rate at 10 mg/kg, ip bid for 15 days measured twice a week during compound dosing by caliper method relative to control; format: functional; settings: time 15 day
# [17] = Observed AUCinfinity in female ICR mouse at 5 mg/kg, ip by LC-MS/MS analysis; format: ADME, organism-based; settings: in vivo
# MV4-11 [18] = experiment: Antiproliferative activity against human MV4-11 cells harboring MLL-AF4 assessed as cell growth inhibition incubated for 7 days by MTS assay; format: functional, cell-based; settings: MV4-11, 168 h
# MV4-11 [19] = experiment: Antiproliferative activity against human MV4-11 cells assessed as reduction in cell viability incubated for 7 days and measured after compound washout; format: functional, cell-based; settings: time 7.0 day
# [20] = Antiproliferative activity against human MINO cells assessed as cell growth inhibition incubated for 7 days by MTS assay; format: functional, cell-based; settings: 168 h
# REH [21] = experiment: Downregulation of MEIS1 expression level in human REH cells at 10 uM incubated for 48 hrs by qRT-PCR analysis; format: functional, cell-based
# MV4-11 [22] = experiment: Antiproliferative activity against human MV4-11 cells assessed as reduction in cell viability preincubated for 7 days and followed by compound washout and measured on day 14 after compound readdition; format: functional, cell-based; settings: time 21.0 day
# [23] = Suppression of MEN1 gene transcription in human MV4-11 cells assessed as protein synthesis by measuring fold change at 10 uM incubated for 48 hrs in presence of 50 ug/ml cycloheximide relative to control; format: functional
# MV4-11 [24] = experiment: Antiproliferative activity against human MV4-11 cells assessed as reduction in cell viability at 80 nM preincubated for 7 days and followed by compound washout and measured on day 14 after compound readdition relative to control; format: functional; settings: time 21 day
# [25] = Suppression of MEN1 gene transcription in human MV4-11 cells assessed as protein synthesis by measuring fold change at 10 uM incubated for 12 hrs in presence of 50 ug/ml cycloheximide relative to control; format: functional
# [26] = Cytotoxicity against human PBMC cells assessed as cell viability incubated for 7 days by MTS assay; format: toxicity, cell-based
# [27] = Solubility of compound in water by HPLC analysis; format: physicochemical
# [28] = Toxicity in nu/nu mouse model assessed as body weight loss at 10 to 20 mg/kg, ip bid for 15 days measured twice a week during compound dosing; format: organism-based; settings: in vivo, 360 h, dose 10-20 mg/kg, time 15 day
# [29] = Suppression of MEN1 gene transcription in human MV4-11 cells assessed as protein synthesis by measuring fold change at 10 uM incubated for 48 hrs in presence of 20 nM carfilzomib relative to control; format: functional
# RS4-11 = experiment: Antiproliferative activity against human RS4;11 cells harboring MLL-AF4 assessed as cell growth inhibition incubated for 7 days by MTS assay; format: functional, cell-based; settings: RS4-11, 168 h
# MV4-11 [30] = experiment: Antitumor activity against human MV4-11 cells xenografted in ip treated nu/nu mouse model assessed as tumor growth inhibition measured upto 15 days; format: functional, organism-based; settings: dose 10-20 mg/kg, time <= 15.0 day
# [31] = test system: Acute myeloid leukemic cell; experiment: Induction of cell differentiation in human acute myeloid leukemia patient-derived cells assessed as increase in CD11b at 150 nM incubated for 7 days by cytoFLEX flow cytometric analysis; format: functional, cell-based; settings: time 7.0 day
# [32] = target: Menin/Histone-lysine N-methyltransferase MLL (Homo sapiens, UniProt O00255); experiment: Inhibition of menin (unknown origin)/N-terminal FITC-labeled MLL1 peptide (unknown origin) interaction incubated for 30 min by fluorescence polarization assay; format: protein assay
# MV4-11 [33] = experiment: Antiproliferative activity against human menin-sensitive MV4-11 cells assessed as inhibition of cell growth incubated for 7 days by MTS assay; format: functional, cell-based; settings: MV4-11, 168 h
# MOLM-14 = experiment: Antiproliferative activity against human MOLM-14 cells harboring MLL-AF9 assessed as cell growth inhibition incubated for 7 days by MTS assay; format: functional, cell-based; settings: MOLM-14, 168 h
# [34] = Suppression of MEN1 gene transcription in human MV4-11 cells assessed as protein synthesis by measuring fold change at 10 uM incubated for 48 hrs relative to control; format: functional
# [35] = Suppression of MEN1 gene transcription in human MV4-11 cells assessed as protein synthesis by measuring fold change at 10 uM incubated for 24 hrs in presence of 50 ug/ml cycloheximide relative to control; format: functional
# [36] = Half life in female ICR mouse at 5 mg/kg, ip by LC-MS/MS analysis; format: ADME, organism-based; settings: in vivo
# Chain of Menin/Histone-lysine N-methyltransferase MLL (O00255 whole entry): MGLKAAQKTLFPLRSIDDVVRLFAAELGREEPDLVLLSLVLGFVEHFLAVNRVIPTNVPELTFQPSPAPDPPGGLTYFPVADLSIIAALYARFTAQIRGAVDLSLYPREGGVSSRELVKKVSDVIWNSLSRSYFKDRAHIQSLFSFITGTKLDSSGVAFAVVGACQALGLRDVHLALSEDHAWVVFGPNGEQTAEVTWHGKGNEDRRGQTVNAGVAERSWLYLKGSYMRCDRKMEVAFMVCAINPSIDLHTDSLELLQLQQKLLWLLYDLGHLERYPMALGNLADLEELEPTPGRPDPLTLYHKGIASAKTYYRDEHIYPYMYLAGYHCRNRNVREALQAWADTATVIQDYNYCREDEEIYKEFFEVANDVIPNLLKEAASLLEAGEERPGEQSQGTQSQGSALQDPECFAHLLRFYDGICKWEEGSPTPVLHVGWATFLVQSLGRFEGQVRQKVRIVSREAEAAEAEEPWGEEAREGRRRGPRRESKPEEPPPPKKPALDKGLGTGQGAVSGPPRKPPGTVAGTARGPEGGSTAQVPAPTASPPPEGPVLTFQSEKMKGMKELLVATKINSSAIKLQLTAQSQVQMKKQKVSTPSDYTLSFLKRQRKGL
# Chain of Menin/Histone-lysine N-methyltransferase MLL (Q03164 1-2718 partner limits assumed): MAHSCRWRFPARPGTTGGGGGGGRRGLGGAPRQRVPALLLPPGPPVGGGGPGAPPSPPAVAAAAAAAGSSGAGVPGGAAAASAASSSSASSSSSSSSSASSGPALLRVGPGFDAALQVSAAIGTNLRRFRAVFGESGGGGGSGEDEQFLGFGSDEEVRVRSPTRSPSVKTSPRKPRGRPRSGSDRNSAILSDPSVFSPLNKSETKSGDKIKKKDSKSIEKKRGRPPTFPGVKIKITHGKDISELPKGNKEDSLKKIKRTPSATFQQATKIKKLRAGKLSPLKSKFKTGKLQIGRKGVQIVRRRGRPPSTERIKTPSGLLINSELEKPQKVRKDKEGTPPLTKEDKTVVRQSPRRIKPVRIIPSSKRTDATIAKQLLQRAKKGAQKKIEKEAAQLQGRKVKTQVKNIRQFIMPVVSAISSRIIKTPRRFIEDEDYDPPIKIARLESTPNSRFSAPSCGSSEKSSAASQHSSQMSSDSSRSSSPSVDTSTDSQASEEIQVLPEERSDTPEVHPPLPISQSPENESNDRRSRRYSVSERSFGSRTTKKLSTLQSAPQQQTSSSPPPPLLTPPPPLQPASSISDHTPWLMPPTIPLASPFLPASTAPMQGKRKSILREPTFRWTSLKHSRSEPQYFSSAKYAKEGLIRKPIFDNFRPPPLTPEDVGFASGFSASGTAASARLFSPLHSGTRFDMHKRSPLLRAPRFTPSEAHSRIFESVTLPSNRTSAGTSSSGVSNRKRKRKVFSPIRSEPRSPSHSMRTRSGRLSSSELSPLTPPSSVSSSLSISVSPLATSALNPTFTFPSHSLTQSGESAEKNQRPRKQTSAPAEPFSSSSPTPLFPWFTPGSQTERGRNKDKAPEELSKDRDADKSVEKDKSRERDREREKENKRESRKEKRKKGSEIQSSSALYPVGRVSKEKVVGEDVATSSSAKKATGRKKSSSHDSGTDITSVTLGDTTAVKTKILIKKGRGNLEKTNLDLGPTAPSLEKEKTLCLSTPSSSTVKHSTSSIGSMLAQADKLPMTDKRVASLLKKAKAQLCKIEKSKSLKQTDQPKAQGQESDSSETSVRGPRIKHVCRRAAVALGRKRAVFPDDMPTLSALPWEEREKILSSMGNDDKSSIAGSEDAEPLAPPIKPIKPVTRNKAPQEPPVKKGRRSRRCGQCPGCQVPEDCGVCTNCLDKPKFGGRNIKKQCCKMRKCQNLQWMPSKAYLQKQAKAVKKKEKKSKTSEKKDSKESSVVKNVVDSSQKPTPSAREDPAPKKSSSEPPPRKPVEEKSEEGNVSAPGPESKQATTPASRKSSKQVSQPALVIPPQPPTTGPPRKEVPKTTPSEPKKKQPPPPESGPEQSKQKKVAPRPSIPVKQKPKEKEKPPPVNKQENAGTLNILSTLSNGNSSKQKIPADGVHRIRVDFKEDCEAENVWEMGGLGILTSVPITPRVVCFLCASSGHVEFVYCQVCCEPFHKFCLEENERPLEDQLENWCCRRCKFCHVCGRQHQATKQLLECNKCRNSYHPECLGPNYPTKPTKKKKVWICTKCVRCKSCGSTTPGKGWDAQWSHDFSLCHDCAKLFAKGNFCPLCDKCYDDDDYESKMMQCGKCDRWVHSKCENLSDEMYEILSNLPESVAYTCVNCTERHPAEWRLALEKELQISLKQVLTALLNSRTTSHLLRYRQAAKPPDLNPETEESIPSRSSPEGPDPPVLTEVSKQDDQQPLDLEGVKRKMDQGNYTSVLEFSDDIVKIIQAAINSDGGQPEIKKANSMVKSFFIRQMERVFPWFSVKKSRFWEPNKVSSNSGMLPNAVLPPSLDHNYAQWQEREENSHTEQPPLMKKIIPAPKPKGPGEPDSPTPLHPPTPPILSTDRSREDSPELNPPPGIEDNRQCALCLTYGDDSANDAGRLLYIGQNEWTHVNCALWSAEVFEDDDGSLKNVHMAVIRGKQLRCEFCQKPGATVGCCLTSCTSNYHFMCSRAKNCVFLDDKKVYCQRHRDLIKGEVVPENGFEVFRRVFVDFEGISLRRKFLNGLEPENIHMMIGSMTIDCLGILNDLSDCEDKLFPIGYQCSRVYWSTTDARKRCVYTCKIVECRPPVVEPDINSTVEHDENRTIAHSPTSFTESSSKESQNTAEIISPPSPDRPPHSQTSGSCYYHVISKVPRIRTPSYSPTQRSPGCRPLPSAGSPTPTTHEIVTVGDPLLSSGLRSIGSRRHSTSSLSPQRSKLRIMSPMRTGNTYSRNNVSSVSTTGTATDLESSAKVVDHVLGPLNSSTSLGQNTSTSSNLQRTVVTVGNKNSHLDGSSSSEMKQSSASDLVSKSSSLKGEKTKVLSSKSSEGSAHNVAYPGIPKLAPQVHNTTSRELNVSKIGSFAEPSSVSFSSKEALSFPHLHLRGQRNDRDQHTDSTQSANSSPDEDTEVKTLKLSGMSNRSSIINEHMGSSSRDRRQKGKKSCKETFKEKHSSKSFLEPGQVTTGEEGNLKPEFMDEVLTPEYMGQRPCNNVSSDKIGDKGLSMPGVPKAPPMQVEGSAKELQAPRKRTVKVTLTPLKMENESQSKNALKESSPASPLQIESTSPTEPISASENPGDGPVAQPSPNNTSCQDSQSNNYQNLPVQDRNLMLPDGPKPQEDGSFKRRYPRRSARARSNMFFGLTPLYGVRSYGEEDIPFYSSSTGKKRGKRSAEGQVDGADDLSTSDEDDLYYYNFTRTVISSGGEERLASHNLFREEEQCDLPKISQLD
# Chain of Menin/Histone-lysine N-methyltransferase MLL (Q03164 2719-3969 partner limits assumed): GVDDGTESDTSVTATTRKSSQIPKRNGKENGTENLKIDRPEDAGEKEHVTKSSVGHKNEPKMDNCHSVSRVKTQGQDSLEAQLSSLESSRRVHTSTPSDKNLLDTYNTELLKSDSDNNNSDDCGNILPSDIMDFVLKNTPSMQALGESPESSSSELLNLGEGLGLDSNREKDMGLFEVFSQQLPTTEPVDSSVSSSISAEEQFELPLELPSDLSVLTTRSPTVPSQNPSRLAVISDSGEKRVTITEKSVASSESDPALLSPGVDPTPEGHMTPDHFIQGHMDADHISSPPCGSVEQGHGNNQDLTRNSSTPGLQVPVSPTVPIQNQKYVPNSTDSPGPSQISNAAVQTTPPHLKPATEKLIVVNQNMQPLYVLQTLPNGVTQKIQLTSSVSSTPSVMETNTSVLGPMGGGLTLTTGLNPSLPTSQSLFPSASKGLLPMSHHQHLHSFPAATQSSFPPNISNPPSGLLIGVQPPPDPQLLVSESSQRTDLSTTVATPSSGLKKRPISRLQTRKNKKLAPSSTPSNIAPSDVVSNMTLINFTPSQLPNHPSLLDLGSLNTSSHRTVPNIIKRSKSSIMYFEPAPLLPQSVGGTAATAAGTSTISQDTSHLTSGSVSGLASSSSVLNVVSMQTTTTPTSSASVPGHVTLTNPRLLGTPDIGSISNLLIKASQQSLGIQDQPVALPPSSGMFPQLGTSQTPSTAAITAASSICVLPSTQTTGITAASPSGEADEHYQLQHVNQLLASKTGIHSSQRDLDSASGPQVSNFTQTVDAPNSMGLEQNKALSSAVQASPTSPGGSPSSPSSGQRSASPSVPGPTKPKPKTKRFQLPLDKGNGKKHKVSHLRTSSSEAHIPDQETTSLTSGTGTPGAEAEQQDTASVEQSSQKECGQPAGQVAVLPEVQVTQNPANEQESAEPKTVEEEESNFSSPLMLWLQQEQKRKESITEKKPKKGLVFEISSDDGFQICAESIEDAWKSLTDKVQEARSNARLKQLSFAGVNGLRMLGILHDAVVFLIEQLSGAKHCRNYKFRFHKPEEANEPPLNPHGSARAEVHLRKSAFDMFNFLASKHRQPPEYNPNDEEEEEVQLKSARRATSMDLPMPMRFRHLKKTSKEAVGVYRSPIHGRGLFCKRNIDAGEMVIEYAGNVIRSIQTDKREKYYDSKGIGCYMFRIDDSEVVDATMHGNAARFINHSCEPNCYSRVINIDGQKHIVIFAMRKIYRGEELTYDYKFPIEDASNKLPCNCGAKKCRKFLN
compound,measurement,setting,value
CCN(C(=O)c1cc(F)ccc1Nc1cncnc1N1CCN(CC2CN(c3ccc(S(=O)(=O)C4CN(C(=O)/C=C/CN(C)C)C4)cc3)C2)C(C)C1)C(C)C (stereo not given),IC50,REH [1],8.4 µM
same,Tmax,[2],15 min
same,Activity,MV4-11 [3],Dose-dependent-effect; Significantly Greater Inhibition At 10 Um Than That Of Sndx-5613
same,Activity,MV4-11 [4],Active
same,Activity,MV4-11 [5],35.85%
same,AUC(0-t),[6],1150 ng·h/mL
same,Activity,MV4-11 [7],Active
same,Cmax,[8],980 ng/mL
same,MRT inf,[9],1.85 h
same,IC50,HL-60,> 3000 nM
same,Activity,MV4-11 [10],Active
same,Activity,REH [11],Active; Little Impact Observed
same,fold change (FC),[12],0.21
same,IC50,REH [13],> 3000 nM
same,IC50,MOLM-13,221 nM
same,Activity,MV4-11 [14],Active
same,Activity,MV4-11 [15],100%
same,Activity,MV4-11 [16],55.64%
same,AUC(0-inf),[17],1230 ng·h/mL
same,IC50,MV4-11 [18],49 nM
same,Activity,MV4-11 [19],inactive
same,IC50,[20],> 3000 nM
same,Activity,REH [21],Active; Little Impact Observed
same,Activity,MV4-11 [22],Dose-dependent-effect
same,fold change (FC),[23],0.25
same,Activity,MV4-11 [24],100%
same,fold change (FC),[25],0.69
same,IC50 at 7 days,[26],> 3000 nM
same,solubility,[27],1230 µg/mL
same,Activity,[28],Non-toxic
same,fold change (FC),[29],0.14
same,IC50,RS4-11,272 nM
same,Activity,MV4-11 [30],Dose-dependent-effect
same,Activity,[31],Active
same,IC50,[32],18.2 nM
same,IC50,MV4-11 [33],30 nM
same,IC50,MOLM-14,103 nM
same,fold change (FC),[34],0.08
same,fold change (FC),[35],0.31
same,half-life,[36],95.4 min
